Source: patent publication US9096560B2, “5-heterocyclylalkyl-3-hydroxy-2-phenylcyclopent-2-enones as herbicides” (Syngenta Limited, priority 2008, dated 2015)

What was measured:
Format in all cases: in vivo
Lolium perenne (LOLPE) [1] = test: Example B pre-emergence herbicidal test, LOLPE; settings: Lolium perenne, 312 h, rate 250 g/ha, evaluated after 13 days, 100=total damage to plant, 0=no damage to plant
How it was run: (§1)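 After sowing in standard soil, pots spent a day in the glasshouse (24/16° C, 14 h photoperiod, 65% humidity) before spraying with compound in acetone/water 50:50 with 0.5% Tween 20. Watering followed twice a day, and plants were evaluated 13 days on, with 100 meaning complete damage.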

[2] = test system: Echinochloa crus-galli (ECHCG); test: Example B pre-emergence herbicidal test, ECHCG; settings: Echinochloa crus-galli, 312 h, rate 250 g/ha, evaluated after 13 days, 100=total damage to plant, 0=no damage to plant
How it was run: as §1

Avena fatua (AVEFA) [3] = test: Example B post-emergence herbicidal test, AVEFA; settings: Avena fatua, 312 h, rate 250 g/ha, evaluated after 13 days, scale 0-100, read-out: Post-emergence activity AVEFA (100=total damage to plant; 0=no damage to plant)
How it was run: (§2)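 Plants grown 8 days in glasshouse (24/16 °C day/night, 14 h light, 65% humidity), then sprayed with aqueous solution from acetone/water (50:50) formulation with 0.5% Tween 20. Damage scored 13 days later on a 0–100 scale (100 = total damage).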

[4] = test system: Echinochloa crus-galli (ECHCG); test: Example B post-emergence herbicidal test, ECHCG; settings: Echinochloa crus-galli, 312 h, rate 250 g/ha, evaluated after 13 days, scale 0-100, read-out: Post-emergence activity ECHCG (100=total damage to plant; 0=no damage to plant)
How it was run: as §2

[5] = test system: Alopecurus myosuroides (ALOMY); test: Example B pre-emergence herbicidal test, ALOMY; settings: Alopecurus myosuroides, 312 h, rate 250 g/ha, evaluated after 13 days, 100=total damage to plant, 0=no damage to plant
How it was run: as §1

Lolium perenne (LOLPE) [6] = test: Example B post-emergence herbicidal test, LOLPE; settings: Lolium perenne, 312 h, rate 250 g/ha, evaluated after 13 days, scale 0-100, read-out: Post-emergence activity LOLPE (100=total damage to plant; 0=no damage to plant)
How it was run: as §2

Avena fatua (AVEFA) [7] = test: Example B pre-emergence herbicidal test, AVEFA; settings: Avena fatua, 312 h, rate 250 g/ha, evaluated after 13 days, 100=total damage to plant, 0=no damage to plant
How it was run: as §1

[8] = test system: Alopecurus myosuroides (ALOMY); test: Example B post-emergence herbicidal test, ALOMY; settings: Alopecurus myosuroides, 312 h, rate 250 g/ha, evaluated after 13 days, scale 0-100, read-out: Post-emergence activity ALOMY (100=total damage to plant; 0=no damage to plant)
How it was run: as §2

| SMILES | pest or weed control at 250 g/ha (Lolium perenne (LOLPE) [1]) [%] | pest or weed control at 250 g/ha [2] [%] | pest or weed control at 250 g/ha (Avena fatua (AVEFA) [3]) [%] | pest or weed control at 250 g/ha [4] [%] | pest or weed control at 250 g/ha [5] [%] | pest or weed control at 250 g/ha (Lolium perenne (LOLPE) [6]) [%] | pest or weed control at 250 g/ha (Avena fatua (AVEFA) [7]) [%] | pest or weed control at 250 g/ha [8] [%] |
| --- | --- | --- | --- | --- | --- | --- | --- | --- |
| Cc1cc(C)c(C2=C(OC(=O)OC(C)C)CC(CC3CCOC3)C2=O)c(C)c1 (stereo not drawn) [Compound P31] | 100 | 100 | 90 | 100 | 100 | 100 | 90 | 90 |
| CC(=O)N1CCCCC1/C=C1\CC(=O)C(c2c(C)cc(C)cc2C)C1=O (stereo not drawn) [Compound T46] | 10 | 10 | 50 | 60 | 50 | 40 | 10 | 60 |
| Cc1cc(C)c(C2C(=O)CC(CC3CCN(C(=O)c4ccco4)CC3)C2=O)c(C)c1 (stereo not drawn) [Compound T90] | 60 | 50 | 100 | 80 | 40 | 80 | 60 | 70 |
| Cc1cc(C)c(C2=C(OC(=O)C3CC3)CC(CC3CCOC3)C2=O)c(C)c1 (stereo not drawn) [Compound P14] | 100 | 100 | 90 | 90 | 100 | 100 | 80 | 90 |
| COc1ccc(C(=O)N2CCC(CC3CC(=O)C(c4c(C)cc(C)cc4C)C3=O)CC2)cc1 (stereo not drawn) [Compound T97] | 70 | 60 | 70 | 80 | 30 | 60 | 30 | 70 |
| CCCCS(=O)(=O)N1CCC(CC2CC(=O)C(c3c(C)cc(C)cc3C)C2=O)CC1 (stereo not drawn) [Compound T96] | 60 | 20 | 40 | 40 | 20 | 60 | 10 | 60 |
| Cc1cc(C)c(C2C(=O)CC(CC3CCN(C(=O)C4CCCC4)CC3)C2=O)c(C)c1 (stereo not drawn) [Compound T114] | 40 | 60 | 40 | 30 | 50 | 50 | 20 | 40 |
| Cc1cc(C)c(C2C(=O)CC(CC3CCN(C(=O)c4c(C)noc4C)CC3)C2=O)c(C)c1 (stereo not drawn) [Compound T118] | 40 | 30 | 80 | 40 | 40 | 30 | 20 | 60 |
| Cc1cc(C)c(C2C(=O)CC(CC3CCN(c4ccc(Cl)cc4)CC3)C2=O)c(C)c1 (stereo not drawn) [Compound T60] | 10 | 0 | 10 | 10 | 10 | 20 | 0 | 30 |
| Cc1cc(C)c(C2C(=O)C/C(=C\C3CCN(C(=O)OCc4ccccc4)CC3)C2=O)c(C)c1 (stereo not drawn) [Compound T42] | 0 | 20 | 0 | 30 | 0 | 20 | 0 | 0 |
| Cc1cc(C)c(C2C(=O)CC(CC3CCN(S(=O)(=O)c4ccc(Cl)cc4)CC3)C2=O)c(C)c1 (stereo not drawn) [Compound T92] | 30 | 40 | 60 | 40 | 30 | 20 | 10 | 30 |
| Cc1cc(C)c(C2C(=O)CC(CC3CCN(C(=O)c4cn(C)nc4C(F)F)CC3)C2=O)c(C)c1 (stereo not drawn) [Compound T124] | 20 | 30 | 30 | 20 | 20 | 20 | 10 | 30 |
| Cc1cc(C)c(C2=C(OC(=O)C3CC3)CC(CC3CCN(C(=O)C4CC4)C3)C2=O)c(C)c1 (stereo not drawn) [Compound P57] | 60 | 30 | 80 | 70 | 50 | 60 | 70 | 80 |
| CON1CCC(CC2CC(OC(=O)C(C)(C)C)=C(c3c(C)cc(C)cc3C)C2=O)CC1 (stereo not drawn) [Compound P51] | 100 | 100 | 100 | 100 | 100 | 100 | 100 | 100 |
| Cc1cc(C)c(C2=C(OC(=O)C3CCCCC3)CC(CC3CCOC3)C2=O)c(C)c1 (stereo not drawn) [Compound P15] | 100 | 100 | 90 | 100 | 100 | 100 | 90 | 100 |
| Cc1cc(C)c(C2C(=O)CC(CC3CCN(C(=O)OCC(Cl)(Cl)Cl)CC3)C2=O)c(C)c1 (stereo not drawn) [Compound T86] | 100 | 50 | 80 | 80 | 60 | 70 | 30 | 40 |
| C=COC(=O)N1CCC(CC2CC(=O)C(c3c(C)cc(C)cc3C)C2=O)CC1 (stereo not drawn) [Compound T102] | 70 | 50 | 90 | 40 | 50 | 80 | 30 | 90 |
| Cc1cc(C)c(C2C(=O)CC(CC3CCN(S(C)(=O)=O)CC3)C2=O)c(C)c1 (stereo not drawn) [Compound T94] | 90 | 80 | 100 | 90 | 90 | 90 | 90 | 100 |
| Cc1cc(C)c(C2C(=O)CC(CC3CCN(C(=O)C4CC4)C3)C2=O)c(C)c1 (stereo not drawn) [Compound T141] | 80 | 80 | 90 | 60 | 80 | 70 | 80 | 80 |
| Cc1cc(C)c(C2C(=O)CC(CC3CCN(C(=O)C(C)Cl)CC3)C2=O)c(C)c1 (stereo not drawn) [Compound T87] | 100 | 60 | 90 | 70 | 90 | 90 | 90 | 70 |
| Cc1cc(C)c(C2C(=O)CC(CC3CCN(C(=O)Oc4ccccc4)CC3)C2=O)c(C)c1 (stereo not drawn) [Compound T68] | 90 | 50 | 90 | 90 | 30 | 90 | 40 | 60 |
